# Experimental data from PubChem BioAssay (NCI).
#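 Tested at 5 concentrations; 48 h exposure; 96-well plates; endpoints linearly interpolated, else capped at highest concentration. TGI denotes the concentration required for complete inhibition of growth.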
# Key:
# Assay in all cases: DTP human tumour cell line panel, 48 h
# [1] = test system: ACHN renal
# [2] = test system: SK-MEL-28 melanoma
# [3] = test system: SF-539 CNS
# [4] = test system: SR leukemia
# [5] = test system: HCC-2998 colon
# [6] = test system: HT29 colon
# [7] = test system: K-562 leukemia
# [8] = test system: NCI-H522 lung
# [9] = test system: EKVX NSCLC
# [10] = test system: MDA-MB-435
# [11] = test system: MOLT-4 leukemia
# [12] = test system: LOX IMVI melanoma
# [13] = test system: MDA-MB-231 breast
# [14] = test system: HS 578T breast
# [15] = test system: MDA-N
# [16] = test system: SK-MEL-2 melanoma
# [17] = test system: HCT-116 colon
# [18] = test system: HOP-62 NSCLC
# [19] = test system: CAKI-1 renal
# [20] = test system: UO-31 renal
# [21] = test system: HL-60(TB) leukemia
# [22] = test system: A498 renal
# [23] = test system: SNB-19 CNS
# [24] = test system: U251 CNS
# [25] = test system: PC-3 prostate
# [26] = test system: MALME-3M melanoma
# [27] = test system: TK-10 renal
# [28] = test system: MCF7 breast
# [29] = test system: RXF 393 renal
# [30] = test system: UACC-62 melanoma
# [31] = test system: UACC-257 melanoma
# [32] = test system: SK-MEL-5 melanoma
# [33] = test system: SNB-75 CNS
# [34] = test system: DU-145 prostate
# [35] = test system: SF-295 CNS
# [36] = test system: 786-0 renal
# [37] = test system: CCRF-CEM leukemia
# [38] = test system: SW-620 colon
# [39] = test system: SN12C renal
# [40] = test system: BT-549 breast
# [41] = test system: NCI-H460 lung
# [42] = test system: M14 melanoma
# [43] = test system: SK-OV-3 ovarian
# [44] = test system: NCI-H23 lung
# [45] = test system: OVCAR-4 ovarian
# [46] = test system: NCI/ADR-RES ovarian
# [47] = test system: NCI-H226 lung
# [48] = test system: COLO 205 colon
# [49] = test system: OVCAR-8 ovarian
# [50] = test system: A549 NSCLC
# [51] = test system: KM12 colon
# [52] = test system: RPMI-8226 leukemia
# [53] = test system: T-47D breast
# [54] = test system: OVCAR-5 ovarian
# [55] = test system: HCT-15 colon
# [56] = test system: HOP-92 NSCLC
# [57] = test system: OVCAR-3 ovarian
# [58] = test system: IGROV1 ovarian
# [59] = test system: SF-268 CNS
smiles,measurement,setting,value
O=[N+]([O-])C(/C=C(\Cl)[N+](=O)[O-])=C(Nc1ccccc1)Nc1ccccc1,TGI,[1],31.9 µM
same,TGI,[2],24.6 µM
same,TGI,[3],24 µM
same,TGI,[4],6.02 µM
same,TGI,[5],37.2 µM
same,TGI,[6],25.7 µM
same,TGI,[7],> 29.5 µM
same,TGI,[8],4.55 µM
same,TGI,[9],27.4 µM
same,TGI,[10],17.4 µM
same,TGI,[11],6.12 µM
same,TGI,[12],33.2 µM
same,TGI,[13],26.9 µM
same,TGI,[14],27.7 µM
same,TGI,[15],18.7 µM
same,TGI,[16],35.8 µM
same,TGI,[17],4.36 µM
same,TGI,[18],4.8 µM
same,TGI,[19],26.8 µM
same,TGI,[20],25.3 µM
same,TGI,[21],14.9 µM
same,TGI,[22],31.7 µM
same,TGI,[23],32.8 µM
same,TGI,[24],27.6 µM
same,TGI,[25],28.8 µM
same,TGI,[26],21 µM
same,TGI,[27],25.4 µM
same,TGI,[28],14.6 µM
same,TGI,[29],10.5 µM
same,TGI,[30],21.3 µM
same,TGI,[31],27.1 µM
same,TGI,[32],26.2 µM
same,TGI,[33],14.1 µM
same,TGI,[34],31.7 µM
same,TGI,[35],31.6 µM
same,TGI,[36],14.3 µM
same,TGI,[37],5.36 µM
same,TGI,[38],11 µM
same,TGI,[39],29.4 µM
same,TGI,[40],20.7 µM
same,TGI,[41],30 µM
same,TGI,[42],22.9 µM
same,TGI,[43],34.5 µM
same,TGI,[44],23.2 µM
same,TGI,[45],20.6 µM
same,TGI,[46],58.5 µM
same,TGI,[47],27.4 µM
same,TGI,[48],23.1 µM
same,TGI,[49],21.6 µM
same,TGI,[50],31.8 µM
same,TGI,[51],24.3 µM
same,TGI,[52],6.35 µM
same,TGI,[53],37.3 µM
same,TGI,[54],20.1 µM
same,TGI,[55],22.3 µM
same,TGI,[56],14.4 µM
same,TGI,[57],17.3 µM
same,TGI,[58],31 µM
same,TGI,[59],37.7 µM
c1ccc(CN2CCC(CNc3ncnc4ccccc34)C2)cc1 (stereo not drawn),TGI,[1],> 100 µM
same,TGI,[2],85.8 µM
same,TGI,[3],> 100 µM
same,TGI,[4],65.1 µM
same,TGI,[6],> 100 µM
same,TGI,[7],> 100 µM
same,TGI,[8],> 100 µM
same,TGI,[9],> 100 µM
same,TGI,[10],> 100 µM
same,TGI,[11],> 100 µM
same,TGI,[12],> 100 µM
same,TGI,[13],> 100 µM
same,TGI,[14],> 100 µM
same,TGI,[15],> 100 µM
same,TGI,[16],> 100 µM
same,TGI,[17],> 100 µM
same,TGI,[18],> 100 µM
same,TGI,[19],> 100 µM
same,TGI,[20],> 100 µM
same,TGI,[21],> 100 µM
same,TGI,[22],> 100 µM
same,TGI,[23],> 100 µM
same,TGI,[24],> 100 µM
same,TGI,[25],> 100 µM
same,TGI,[26],43 µM
same,TGI,[27],> 100 µM
same,TGI,[28],> 100 µM
same,TGI,[29],> 100 µM
same,TGI,[30],> 100 µM
same,TGI,[32],82 µM
same,TGI,[33],> 100 µM
same,TGI,[34],> 100 µM
same,TGI,[35],> 100 µM
same,TGI,[36],> 100 µM
same,TGI,[37],> 100 µM
same,TGI,[38],> 100 µM
same,TGI,[39],> 100 µM
same,TGI,[40],> 100 µM
same,TGI,[41],> 100 µM
same,TGI,[42],35.4 µM
same,TGI,[43],> 100 µM
same,TGI,[44],> 100 µM
same,TGI,[45],> 100 µM
same,TGI,[46],> 100 µM
same,TGI,[47],> 100 µM
same,TGI,[48],> 100 µM
same,TGI,[49],> 100 µM
same,TGI,[50],> 100 µM
same,TGI,[51],> 100 µM
same,TGI,[52],38.7 µM
same,TGI,[53],> 100 µM
same,TGI,[54],> 100 µM
same,TGI,[55],> 100 µM
same,TGI,[56],> 100 µM
same,TGI,[57],> 100 µM
same,TGI,[58],> 100 µM
same,TGI,[59],> 100 µM
Clc1ccc(C2=CC(c3ccccc3)N3C(=N[C@H]4CCCC[C@@H]43)N2)cc1 (stereo partly drawn),TGI,[1],17.8 µM
same,TGI,[2],11 µM
same,TGI,[3],19.6 µM
same,TGI,[4],5.98 µM
same,TGI,[5],5.08 µM
same,TGI,[6],10.2 µM
same,TGI,[7],> 100 µM
same,TGI,[9],17.4 µM
same,TGI,[10],20.4 µM
same,TGI,[11],12.5 µM
same,TGI,[12],19.7 µM
same,TGI,[13],22.1 µM
same,TGI,[14],23.6 µM
same,TGI,[15],18.9 µM
same,TGI,[16],27.2 µM
same,TGI,[17],11.6 µM
same,TGI,[19],26.9 µM
same,TGI,[20],22.9 µM
same,TGI,[21],7.79 µM
same,TGI,[22],22.2 µM
same,TGI,[23],17.6 µM
same,TGI,[24],17.2 µM
same,TGI,[25],19.5 µM
same,TGI,[26],14.5 µM
same,TGI,[27],20 µM
same,TGI,[28],13.2 µM
same,TGI,[29],8.44 µM
same,TGI,[30],18.6 µM
same,TGI,[31],25.7 µM
same,TGI,[32],3.35 µM
same,TGI,[33],13.6 µM
same,TGI,[34],20.7 µM
same,TGI,[35],20.3 µM
same,TGI,[36],10.9 µM
same,TGI,[37],> 100 µM
same,TGI,[38],15.4 µM
same,TGI,[40],21.3 µM
same,TGI,[41],8.72 µM
same,TGI,[42],10.5 µM
same,TGI,[43],27.9 µM
same,TGI,[44],20.6 µM
same,TGI,[45],18.4 µM
same,TGI,[46],19.6 µM
same,TGI,[47],23 µM
same,TGI,[48],4.23 µM
same,TGI,[49],11.4 µM
same,TGI,[50],18.4 µM
same,TGI,[51],8.79 µM
same,TGI,[52],7.02 µM
same,TGI,[53],21.6 µM
same,TGI,[54],23.6 µM
same,TGI,[55],15.5 µM
same,TGI,[56],17.2 µM
same,TGI,[57],19.3 µM
same,TGI,[58],13.6 µM
same,TGI,[59],25.2 µM
CCOC(=O)NCC(=O)NCC(=O)NCC(N)=O,TGI,[1],> 100 µM
same,TGI,[2],> 100 µM
same,TGI,[4],> 100 µM
same,TGI,[5],> 100 µM
same,TGI,[6],> 100 µM
same,TGI,[7],> 100 µM
same,TGI,[8],> 100 µM
same,TGI,[9],> 100 µM
same,TGI,[10],> 100 µM
same,TGI,[11],> 100 µM
same,TGI,[13],> 100 µM
same,TGI,[14],> 100 µM
same,TGI,[15],> 100 µM
same,TGI,[16],> 100 µM
same,TGI,[17],> 100 µM
same,TGI,[18],> 100 µM
same,TGI,[19],> 100 µM
same,TGI,[20],> 100 µM
same,TGI,[23],> 100 µM
same,TGI,[24],> 100 µM
same,TGI,[25],> 100 µM
same,TGI,[26],> 100 µM
same,TGI,[27],> 100 µM
same,TGI,[28],> 100 µM
same,TGI,[29],> 100 µM
same,TGI,[30],> 100 µM
same,TGI,[31],> 100 µM
same,TGI,[32],> 100 µM
same,TGI,[34],> 100 µM
same,TGI,[35],> 100 µM
same,TGI,[36],> 100 µM
same,TGI,[37],> 100 µM
same,TGI,[38],> 100 µM
same,TGI,[40],> 100 µM
same,TGI,[42],> 100 µM
same,TGI,[43],> 100 µM
same,TGI,[44],> 100 µM
same,TGI,[45],> 100 µM
same,TGI,[46],> 100 µM
same,TGI,[47],> 100 µM
same,TGI,[48],> 100 µM
same,TGI,[49],> 100 µM
same,TGI,[50],> 100 µM
same,TGI,[51],> 100 µM
same,TGI,[52],> 100 µM
same,TGI,[53],> 100 µM
same,TGI,[54],> 100 µM
same,TGI,[55],> 100 µM
same,TGI,[57],> 100 µM
same,TGI,[58],> 100 µM
same,TGI,[59],> 100 µM
